Data: ChEMBL document CHEMBL4138146, “A Schmidt rearrangement-mediated synthesis of novel tetrahydro-benzo[1,4]diazepin-5-ones as potential anticancer and antiprotozoal agents” (Eur J Med Chem, 2017)

Legend:
Assay type in all cases: functional
NCI-H23 = test: Growth inhibition of human NCI-H23 cells assessed as cell growth at 10^-8 M incubated for 48 hrs by sulforhodamine B assay relative to control; conditions: NCI-H23, 48 h, read-out: Activity
NCI-H522 [1] = test: Growth inhibition of human NCI-H522 cells assessed as cell growth at 10^-8 M incubated for 48 hrs by sulforhodamine B assay relative to control; conditions: NCI-H522, 48 h, read-out: Activity
HCT-116 = test: Growth inhibition of human HCT116 cells assessed as cell growth at 10^-8 M incubated for 48 hrs by sulforhodamine B assay relative to control; conditions: HCT-116, 48 h, read-out: Activity
SW-620 = test: Growth inhibition of human SW620 cells assessed as cell growth at 10^-8 M incubated for 48 hrs by sulforhodamine B assay relative to control; conditions: SW-620, 48 h, read-out: Activity
IGROV-1 = test: Growth inhibition of human IGROV1 cells assessed as cell growth at 10^-8 M incubated for 48 hrs by sulforhodamine B assay relative to control; conditions: IGROV-1, 48 h, read-out: Activity
OVCAR-5 = test: Growth inhibition of human OVCAR5 cells assessed as cell growth at 10^-8 M incubated for 48 hrs by sulforhodamine B assay relative to control; conditions: OVCAR-5, 48 h, read-out: Activity
PC-3 = test: Growth inhibition of human PC3 cells assessed as cell growth at 10^-8 M incubated for 48 hrs by sulforhodamine B assay relative to control; conditions: PC-3, 48 h, read-out: Activity
RPMI-8226 [2] = test: Growth inhibition of human RPMI8226 cells assessed as cell growth at 10^-7 M incubated for 48 hrs by sulforhodamine B assay relative to control; conditions: RPMI-8226, 48 h, read-out: Activity
EKVX = test: Growth inhibition of human EKVX cells assessed as cell growth at 10^-7 M incubated for 48 hrs by sulforhodamine B assay relative to control; conditions: read-out: Activity
NCI-H322M = test: Growth inhibition of human NCI-H322M cells assessed as cell growth at 10^-7 M incubated for 48 hrs by sulforhodamine B assay relative to control; conditions: read-out: Activity
NCI/ADR-RES = test: Growth inhibition of human NCI/ADR-RES cells assessed as cell growth at 10^-7 M incubated for 48 hrs by sulforhodamine B assay relative to control; conditions: read-out: Activity
786-0 = test: Growth inhibition of human 786-0 cells assessed as cell growth at 10^-7 M incubated for 48 hrs by sulforhodamine B assay relative to control; conditions: 786-0, 48 h, read-out: Activity
MCF7 = test: Growth inhibition of human MCF7 cells assessed as cell growth at 10^-7 M incubated for 48 hrs by sulforhodamine B assay relative to control; conditions: MCF7, 48 h, read-out: Activity
MDA-MB-231 [3] = test: Growth inhibition of human MDA-MB-231 cells assessed as cell growth at 10^-7 M incubated for 48 hrs by sulforhodamine B assay relative to control; conditions: MDA-MB-231, 48 h, read-out: Activity
NCI-H460 = test: Growth inhibition of human NCI-H460 cells assessed as cell growth at 10^-6 M incubated for 48 hrs by sulforhodamine B assay relative to control; conditions: NCI-H460, 48 h, read-out: Activity
LOX IMVI [4] = test: Growth inhibition of human LOXIMVI cells assessed as cell growth at 10^-6 M incubated for 48 hrs by sulforhodamine B assay relative to control; conditions: read-out: Activity
A498 = test: Growth inhibition of human A498 cells assessed as cell growth at 10^-6 M incubated for 48 hrs by sulforhodamine B assay relative to control; conditions: A498, 48 h, read-out: Activity
MDA-MB-231 [5] = test: Growth inhibition of human MDA-MB-231 cells assessed as cell growth at 10^-6 M incubated for 48 hrs by sulforhodamine B assay relative to control; conditions: MDA-MB-231, 48 h, read-out: Activity
HL-60(TB) = test: Growth inhibition of human HL-60(TB) cells assessed as cell growth at 10^-5 M incubated for 48 hrs by sulforhodamine B assay relative to control; conditions: HL-60, 48 h, read-out: Activity
RPMI-8226 [6] = test: Growth inhibition of human RPMI8226 cells assessed as cell growth at 10^-5 M incubated for 48 hrs by sulforhodamine B assay relative to control; conditions: RPMI-8226, 48 h, read-out: Activity
NCI-H522 [7] = test: Growth inhibition of human NCI-H522 cells assessed as cell growth at 10^-5 M incubated for 48 hrs by sulforhodamine B assay relative to control; conditions: NCI-H522, 48 h, read-out: Activity
HT-29 = test: Growth inhibition of human HT-29 cells assessed as cell growth at 10^-5 M incubated for 48 hrs by sulforhodamine B assay relative to control; conditions: HT-29, 48 h, read-out: Activity
SF-268 = test: Growth inhibition of human SF268 cells assessed as cell growth at 10^-5 M incubated for 48 hrs by sulforhodamine B assay relative to control; conditions: SF-268, 48 h, read-out: Activity
SF-539 = test: Growth inhibition of human SF539 cells assessed as cell growth at 10^-5 M incubated for 48 hrs by sulforhodamine B assay relative to control; conditions: SF-539, 48 h, read-out: Activity
SNB-19 = test: Growth inhibition of human SNB19 cells assessed as cell growth at 10^-5 M incubated for 48 hrs by sulforhodamine B assay relative to control; conditions: SNB-19, 48 h, read-out: Activity
MDA-MB-435 = test: Growth inhibition of human MDA-MB-435 cells assessed as cell growth at 10^-5 M incubated for 48 hrs by sulforhodamine B assay relative to control; conditions: MDA-MB-435, 48 h, read-out: Activity
SK-MEL-5 = test: Growth inhibition of human SK-MEL-5 cells assessed as cell growth at 10^-5 M incubated for 48 hrs by sulforhodamine B assay relative to control; conditions: SK-MEL-5, 48 h, read-out: Activity
UO-31 = test: Growth inhibition of human UO31 cells assessed as cell growth at 10^-5 M incubated for 48 hrs by sulforhodamine B assay relative to control; conditions: UO-31, 48 h, read-out: Activity
MDA-MB-231 [8] = test: Growth inhibition of human MDA-MB-231 cells assessed as cell growth at 10^-5 M incubated for 48 hrs by sulforhodamine B assay relative to control; conditions: MDA-MB-231, 48 h, read-out: Activity
T47D = test: Growth inhibition of human T47D cells assessed as cell growth at 10^-5 M incubated for 48 hrs by sulforhodamine B assay relative to control; conditions: read-out: Activity
KM12 = test: Growth inhibition of human KM12 cells assessed as cell growth at 10^-4 M incubated for 48 hrs by sulforhodamine B assay relative to control; conditions: KM12, 48 h, read-out: Activity
LOX IMVI [9] = test: Growth inhibition of human LOXIMVI cells assessed as cell growth at 10^-4 M incubated for 48 hrs by sulforhodamine B assay relative to control; conditions: read-out: Activity
OVCAR-3 = test: Growth inhibition of human OVCAR3 cells assessed as cell growth at 10^-4 M incubated for 48 hrs by sulforhodamine B assay relative to control; conditions: OVCAR-3, 48 h, read-out: Activity

`CCCCOc1nc2ccccc2cc1C1CNC(=O)c2ccccc2N1` (stereo not drawn) showed a growth at 0.01 µM (NCI-H23) of 95%, a growth at 0.01 µM (NCI-H522 [1]) of 90% and a growth at 0.01 µM (HCT-116) of 101%. It also gave a growth at 0.01 µM (SW-620) of 96%, a growth at 0.01 µM (IGROV-1) of 97% and a growth at 0.01 µM (OVCAR-5) of 98%. It also gave a growth at 0.01 µM (PC-3) of 96%, a growth at 0.1 µM (RPMI-8226 [2]) of 98% and a growth at 0.1 µM (EKVX) of 97%. The growth at 0.1 µM (NCI-H322M) was 95%, the growth at 0.1 µM (NCI/ADR-RES) was 97% and the growth at 0.1 µM (786-0) was 100%. The growth at 0.1 µM (MCF7) was 91%, the growth at 0.1 µM (MDA-MB-231 [3]) was 96% and the growth at 1 µM (NCI-H460) was 94%. It also gave a growth at 1 µM (LOX IMVI [4]) of 80%, a growth at 1 µM (A498) of 42% and a growth at 1 µM (MDA-MB-231 [5]) of 85%. It also gave a growth at 10 µM (HL-60(TB)) of -28%, a growth at 10 µM (RPMI-8226 [6]) of 9% and a growth at 10 µM (NCI-H522 [7]) of 25%. For the same compound, the growth at 10 µM (HT-29) was 3%, the growth at 10 µM (SF-268) was 31% and the growth at 10 µM (SF-539) was -12%. For the same compound, the growth at 10 µM (SNB-19) was 38%, the growth at 10 µM (MDA-MB-435) was -58% and the growth at 10 µM (SK-MEL-5) was 10%. It also gave a growth at 10 µM (UO-31) of 31%, a growth at 10 µM (MDA-MB-231 [8]) of 25% and a growth at 10 µM (T47D) of 36%. The growth at 100 µM (KM12) was -2%, the growth at 100 µM (LOX IMVI [9]) was -81% and the growth at 100 µM (OVCAR-3) was -92%.
